Source: US20020111274A1, “1-alkyl-3-[1-(substituted phenyl) benzotriazol-6-yl] uracils” (BASF Aktiengesellschaft, priority 2000, published 2002)

melting point: 145 to 150 °C
Structure (SMILES): COc1ccc(C)cc1-n1nnc2cc(F)c(-n3c(=O)cc(C(F)(F)F)[nH]c3=O)cc21 [Example 2, 3-[5-fluoro-1-(2-methoxy-5-methylphenyl)-1H-1,2,3-benzotriazol-6-yl]-6-(trifluoromethyl)-2,4(1H,3H)-pyrimidinedione]
